Patent publication US20100093744A1, “THIOGLUCOSE SPIROKETAL DERIVATIVE AND USE THEREOF AS THERAPEUTIC AGENT FOR DIABETES” (Chugai Seiyaku Kabushiki Kaisha, priority 2007, published 2010)

Target: T1, human SGLT2 (Homo sapiens, UniProt P31639)
T1 construct: expressed in transfected cells
T1 sequence (P31639 1-672): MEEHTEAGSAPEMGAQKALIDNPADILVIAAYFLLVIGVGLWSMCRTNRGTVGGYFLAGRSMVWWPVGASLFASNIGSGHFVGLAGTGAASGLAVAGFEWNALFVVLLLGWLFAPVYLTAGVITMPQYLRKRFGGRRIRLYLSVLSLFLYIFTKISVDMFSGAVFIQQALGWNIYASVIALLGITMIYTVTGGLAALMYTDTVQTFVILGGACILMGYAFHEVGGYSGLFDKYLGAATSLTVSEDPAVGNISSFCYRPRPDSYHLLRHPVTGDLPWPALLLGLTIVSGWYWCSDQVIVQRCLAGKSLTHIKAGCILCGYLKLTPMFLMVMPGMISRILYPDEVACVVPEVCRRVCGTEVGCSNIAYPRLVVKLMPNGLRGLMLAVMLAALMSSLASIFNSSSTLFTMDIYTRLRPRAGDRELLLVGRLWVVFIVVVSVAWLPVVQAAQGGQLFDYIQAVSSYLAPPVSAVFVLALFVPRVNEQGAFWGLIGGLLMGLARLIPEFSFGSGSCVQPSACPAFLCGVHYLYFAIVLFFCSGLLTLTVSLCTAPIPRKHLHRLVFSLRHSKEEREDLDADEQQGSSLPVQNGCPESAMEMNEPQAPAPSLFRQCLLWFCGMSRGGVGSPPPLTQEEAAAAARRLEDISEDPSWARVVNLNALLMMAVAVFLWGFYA
Assay: Inhibition of methyl-α-D-glucopyranoside uptake in CHO cells stably expressing human SGLT2
Assay type: cell-based
Conditions: methyl-α-D-(U-14C)glucopyranoside uptake, 37° C., 45 minutes, read-out: ICH value for the inhibition of SGLT2
Method: Assay for Evaluating Inhibition of Activity of Human Na^+-Glucose Cotransporter (SGLT1 and SGLT2)
Human SGLT2 cDNA was amplified by PCR with a cDNA library derived from human kidney (Clontech) as a template, synthetic DNA primers, and KOD+ DNA Polymerase. The amplified cDNA was inserted into pcRII-Topo vector by using a Topo TA Cloning Dual Promoter kit. E. coli competent cells (TPO10) were transformed with the plasmid vector, and then cultured in LB medium containing ampicillin (50 mg/L) to grow ampicillin-resistant clones. The plasmid vector containing human SGLT2 cDNA was purified from the clone in a standard manner. Human SGLT2 cDNA added restriction enzyme recognition sites (Xho I at 5′-end, Hind III at 3′-end) was amplified by PCR with the plasmid vector as a template, synthetic DNA primers containing an additional restriction enzyme recognition site, and KOD+ DNA Polymerase. This amplified cDNA was digested with Xho I and Hind III, and the resulting fragment was ligated into expression vector pcDNA3.1(−) digested with Xho I and Hind III by using a Rapid DNA Ligation kit. E. coli competent cells (DH5α) were transformed with the ligated expression vector and grown in ampicillin-containing LB medium. Human SGLT2 expression vector was purified from the ampicillin-resistant clone in a standard manner. […]

**Q.** `CCc1ccc(Cc2ccc3c(c2)[C@]2(OC3)S[C@H](CO)[C@@H](O)[C@H](O)[C@H]2O)cc1` [Example 1, (1S,3′R,4′S,5′S,6′R)-6-[(4-ethylphenyl)methyl]-3′,4′,5′,6′-tetrahydro-6′-(hydroxymethyl)-spiro[isobenzofuran-1(3H),2′-[2H]thiopyran]-3′,4′,5′-triol] was tested. Which IC50 did it give?
**A.** 12 nM
